# Test results as given in BindingDB's records for patent US20240083857 (Bayer Pharma Aktiengesellschaft, 2024).
# Target: Epidermal growth factor receptor (Homo sapiens, UniProt P00533)
# Assay: EGFR Kinase Assay
# Procedure: For the assay 50 nL of a 100 fold concentrated solution of the test compound in DMSO was pipetted into a black low volume 384 well microtiter plate (Greiner Bio-One, Frickenhausen, Germany), 2 μL of a solution of EGFR in aqueous assay buffer [50 mM Hepes/HCl pH 7.0, 1 mM MgCl2, 5 mM MnCl2, 0.5 mM activated sodium ortho-vanadate, 0.005% (v/v) Tween-20]were added and the mixture was incubated for 15 min at 22° C. to allow pre-binding of the test compounds to the enzyme before the start of the kinase reaction. […] The concentration of EGFR was adjusted depending of the activity of the enzyme lot and was chosen appropriate to have the assay in the linear range, typical concentration were about 3 U/ml. The reaction was stopped by the addition of 5 μl of a solution of HTRF detection reagents (0.1 μM streptavidine-XL665 [Cis Biointernational] and 1 nM PT66-Tb-Cryptate, an terbium-cryptate labelled anti-phospho-tyrosine antibody from Cis Biointernational [instead of the PT66-Tb-cryptate PT66-Eu-Chelate from Perkin Elmer can also be used]) in an aqueous EDTA-solution (80 mM EDTA, 0.2% (w/v) bovine serum albumin in 50 mM HEPES pH 7.5).The resulting mixture was incubated 1 h at 22° C. to allow the binding of the biotinylated phosphorylated peptide to the streptavidine-XL665 and the PT66-Eu-Chelate. Subsequently the amount of phosphorylated substrate was evaluated by measurement of the resonance energy transfer from the PT66-Tb-Cryptate to the streptavidine-XL665.
# Sequence of Epidermal growth factor receptor (P00533 whole entry): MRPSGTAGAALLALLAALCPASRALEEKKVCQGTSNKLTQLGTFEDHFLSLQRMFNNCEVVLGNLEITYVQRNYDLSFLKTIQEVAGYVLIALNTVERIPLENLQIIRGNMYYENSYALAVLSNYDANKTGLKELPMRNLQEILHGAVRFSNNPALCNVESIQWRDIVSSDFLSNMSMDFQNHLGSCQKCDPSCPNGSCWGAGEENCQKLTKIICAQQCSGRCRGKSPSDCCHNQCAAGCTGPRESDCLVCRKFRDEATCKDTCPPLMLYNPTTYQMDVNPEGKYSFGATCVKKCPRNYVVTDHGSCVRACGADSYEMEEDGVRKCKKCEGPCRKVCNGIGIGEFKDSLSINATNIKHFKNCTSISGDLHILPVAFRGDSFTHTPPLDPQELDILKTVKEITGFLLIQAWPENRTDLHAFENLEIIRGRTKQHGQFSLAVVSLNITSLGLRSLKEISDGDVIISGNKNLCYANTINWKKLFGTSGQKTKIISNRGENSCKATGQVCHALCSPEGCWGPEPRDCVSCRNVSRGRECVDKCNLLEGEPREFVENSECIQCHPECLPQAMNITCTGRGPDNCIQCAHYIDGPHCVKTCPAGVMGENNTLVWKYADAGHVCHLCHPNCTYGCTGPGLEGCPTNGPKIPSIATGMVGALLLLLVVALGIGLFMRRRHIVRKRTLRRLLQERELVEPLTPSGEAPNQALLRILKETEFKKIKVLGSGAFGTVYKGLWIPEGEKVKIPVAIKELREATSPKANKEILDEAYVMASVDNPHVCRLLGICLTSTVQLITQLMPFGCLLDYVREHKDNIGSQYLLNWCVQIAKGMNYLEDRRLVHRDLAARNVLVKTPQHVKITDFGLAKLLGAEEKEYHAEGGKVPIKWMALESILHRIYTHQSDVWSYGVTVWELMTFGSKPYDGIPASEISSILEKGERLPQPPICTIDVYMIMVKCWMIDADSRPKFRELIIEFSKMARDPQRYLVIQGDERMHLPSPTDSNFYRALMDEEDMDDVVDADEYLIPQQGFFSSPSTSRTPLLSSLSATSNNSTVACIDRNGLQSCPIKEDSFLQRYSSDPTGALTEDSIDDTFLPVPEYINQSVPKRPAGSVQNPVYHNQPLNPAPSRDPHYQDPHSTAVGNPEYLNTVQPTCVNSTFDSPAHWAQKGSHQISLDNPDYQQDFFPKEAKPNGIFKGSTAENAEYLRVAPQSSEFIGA
row,Compound,IC50
1,"COc1cc2nc(C)nc(NC(C)c3ccc(-c4ccccc4CNCC(=O)NCc4ccccc4)s3)c2cc1OC (stereo unspecified) [US20240083857, Example 284]",> 20 µM
2,"CNC(=O)CNCc1ccccc1-c1ccc(C(C)Nc2nc(C)nc3cc(OC)c(OC)cc23)s1 (stereo unspecified) [US20240083857, Example 282]",> 20 µM
3,"COc1cc2nc(C)nc(N[C@H](C)c3ccc(C#N)cc3)c2cc1OC [US20240083857, Example 189]",> 20 µM
4,"Cc1nc(N[C@H](C)c2ccccc2)c2cc(Br)ccc2n1 [US20240083857, Example 29]",> 20 µM
5,"COc1cc2nc(C)nc(NC(C)c3ccc(-c4ccccc4CNCC(=O)N(C)C)s3)c2cc1OC (stereo unspecified) [US20240083857, Example 280]",> 20 µM
6,"Cc1nc(NC(C)c2ccc(-c3ccccc3CN(C)C)s2)c2cc(N3CCCC3)ccc2n1 (stereo unspecified) [US20240083857, Example 415]",> 20 µM
7,"Cc1nc(N[C@H](C)c2ccc(F)cc2)c2cc(Br)ccc2n1 [US20240083857, Example 31]",> 20 µM
8,"COCCNC(=O)CNCc1ccccc1-c1ccc(C(C)Nc2nc(C)nc3cc(OC)c(OC)cc23)s1 (stereo unspecified) [US20240083857, Example 283]",> 20 µM
9,"COc1cc2nc(C)nc(N[C@H](C)c3cc4cccc(OC)c4o3)c2cc1OC [US20240083857, Example 33]",> 20 µM
10,"COc1cc2nc(C)nc(NC(C)c3ccc(-c4ccccc4CNCC(N)=O)s3)c2cc1OC (stereo unspecified) [US20240083857, Example 279]",> 20 µM
11,"COc1cc2nc(C)nc(NC(C)c3ccc(-c4ccccc4CNCC(=O)Nc4ccccc4)s3)c2cc1OC (stereo unspecified) [US20240083857, Example 289]",> 20 µM
